Test results taken from article PMC6273991, “Cytotoxic Labdane Diterpenes from Hedychium ellipticum Buch.-Ham. ex Sm” (Molecules, 2016).
In brackets after ≈: the same amount, converted by molar mass. Several values for one entry are separate records, joined by “and”; a condition that tells them apart may be missing. Equal values may be shown once. Read-outs that look alike come from different tables or passages of the source.

Tests used:
[1] = system: human breast cancer cell (MCF7); experiment: Cytotoxicity, resazurin microplate assay (REMA), MCF7; conditions: for Cytotoxicity (IC50) MCF7: MCF7 cells, REMA, 5 days; for IC50: Homo sapiens, MCF7, 120 h, read-out: Cytotoxicity (IC50) MCF7; for Selectivity Index MCF7: IC50 on Vero cells divided by IC50 for MCF7 cells
[2] = system: human small cell lung cancer cell (NCI-H187); experiment: Cytotoxicity, resazurin microplate assay (REMA), NCI-H187; conditions: for IC50: Homo sapiens, NCI-H187, 120 h, read-out: Cytotoxicity (IC50) NCI-H187; for Selectivity Index NCI-H187: IC50 on Vero cells divided by IC50 for NCI-H187 cells
in vitro = conditions: African green monkey, Vero cells (African green monkey kidney, non-cancerous)
[3] = system: Mycobacterium tuberculosis H37Ra; experiment: Antimycobacterial activity, green fluorescent protein microplate assay (GFPMA); assay type: cell-based; conditions: M. tuberculosis H37Ra, MIC = lowest concentration effecting inhibition of ≥90%; for MIC: Mycobacterium tuberculosis, read-out: Anti-TB (MIC)
Protocol: The antimycobacterial activity was assessed against Mycobacterium tuberculosis H37Ra using the green fluorescent protein microplate assay (GFPMA). The lowest drug concentration effecting and inhibition of ≥90% was considered the MIC.

[4] = system: human oral cavity cancer cell (KB); experiment: Cytotoxicity, resazurin microplate assay (REMA), KB; conditions: for IC50: Homo sapiens, KB, 120 h, read-out: Cytotoxicity (IC50) KB, KB cells, REMA, 5 days; for Selectivity Index KB: IC50 on Vero cells divided by IC50 for KB cells; for Cytotoxicity (IC50) KB: KB cells, REMA, 5 days
B16 cells = system: B16 cells; design: method as in PMID 9873721; conditions: cited from earlier work
NCI-H187 cell = conditions: cited from earlier work
SNU-1 cells = system: SNU-1 cells; design: method as in PMID 9873721; conditions: cited from earlier work
P388 cells = system: P388 cells; design: method as in PMID 9873721; conditions: cited from earlier work
[5] = system: African green monkey kidney (Vero) cell line; experiment: Cytotoxicity against non-cancerous cells, GFP detection; conditions: 4 days, Undetectable = at concentration ≤50 μg/mL
V-79 cell = system: V-79 cell; design: method as in PMID 3222377, PMID 21106458; conditions: cited from earlier work
A-549 cell line = system: A-549 cell line; design: method as in PMID 21106458; conditions: read-out: LC50 A-549 cell line; cited from earlier work
HeLa cells = system: HeLa cells; design: method as in PMID 21106458; conditions: cited from earlier work
KB cell = system: KB cell; design: method as in PMID 18932088; conditions: cited from earlier work
MCF-7 cells = system: MCF-7 cells; design: method as in PMID 21106458; conditions: read-out: LC50 MCF-7 cells; cited from earlier work
SK-N-SH cells = system: SK-N-SH cells; design: method as in PMID 21106458; conditions: read-out: LC50 SK-N-SH cells; cited from earlier work

| Compound | IC50 [2] | Selectivity Index NCI-H187 [2] | IC50 at 4 days (in vitro) | Anti-TB (MIC) [3] | IC50 [4] [µg/mL] | IC50 ([4]; value in parentheses) [µM] | Selectivity Index KB [4] | MIC [3] [µg/mL] | IC50 [1] | other results |
| --- | --- | --- | --- | --- | --- | --- | --- | --- | --- | --- |
| C=C1CC[C@H]2C(C)(C)CCC[C@]2(C)[C@H]1CC=C(C=O)CC(=O)O (stereo in doubt) [Compound 9, zerumin A] | 33.5 µg/mL and 105 µM | 1.5 | 49.5 µg/mL and 155 µM | Inactive | 47.4 | 149 | 1.0 |  |  | Cytotoxicity (IC50) MCF7 [1]: Inactive |
| C=C1CC[C@H]2C(C)(C)CCC[C@]2(C)[C@H]1/C=C/c1ccoc1 [Compound 1, coronarin E] | 18.1 µg/mL and 63.5 µM | 1.4 | 25.4 µg/mL and 89.2 µM |  | 9.67 | 34 | 2.6 | 12.5 (≈ 43.9 µM) |  | Cytotoxicity (IC50) MCF7 [1]: Inactive; IC50 B16 cells (B16 cells): 18.8 µg/mL (≈ 66.1 µM); IC50 (NCI-H187 cell): 49.7 µM; IC50 SNU-1 cells (SNU-1 cells): 8.0 µg/mL (≈ 28.1 µM); IC50 P388 cells (P388 cells): 10.0 µg/mL (≈ 35.2 µM) |
| C=C1CC[C@H]2C(C)(C)CCC[C@]2(C)[C@H]1/C=C/C(C)=O [Compound 2, (E)-15,16-bisnorlabda-8(17),11-dien-13-one] | 21.7 µg/mL and 83.2 µM |  | > 192 µM | Inactive | 37 | 142 |  |  | 49.2 µg/mL and 189 µM | melting point: 146 to 147 °C; Cytotoxicity (IC50) Vero Cell [5]: Undetectable ^2 |
| C=C1CC[C@H]2C(C)(C)CCC[C@]2(C)[C@H]1/C=C/C(=O)O [Compound 3, (E)-14,15,16-trinorlabda-8(17),11-dien-13-oic acid] | 49.2 µg/mL and 188 µM |  | > 191 µM | Inactive |  |  |  |  |  | Cytotoxicity (IC50) MCF7 [1]: Inactive; Cytotoxicity (IC50) KB [4]: Inactive; Cytotoxicity (IC50) Vero Cell [5]: Undetectable ^2 |
| C=C1CC[C@H]2C(C)(C)CCC[C@]2(C)[C@H]1/C=C/C1=CCOC1=O [Compound 4, villosin] | 0.12 µg/mL and 400 nM | >416.7 | > 166 µM | Inactive | 4.1 | 13.7 |  |  | 8.5 µg/mL and 28.3 µM | Cytotoxicity (IC50) Vero Cell [5]: Undetectable ^2 |
| C=C1CC[C@H]2C(C)(C)CCC[C@]2(C)[C@H]1C/C=C(/C=O)CC=O [Compound 5, (E)-labda-8(17),12-dien-15,16-dial] | 11.2 µg/mL and 36.9 µM | 2.0 | 22.5 µg/mL and 74.5 µM | Inactive | 29.1 | 96 | 0.8 |  | 22.6 µg/mL and 74.6 µM | Selectivity Index MCF7 [1]: 1.0; IC50 V-79 cell (V-79 cell): 18.5 µg/mL (≈ 61.2 µM) |
| C=C1CCC2C(C)(C)CCC[C@]2(C)[C@H]1/C=C/C1=CC(OC)OC1=O (stereo partly drawn) [Compound 6, 15-methoxylabda-8(17),11,13-trien-15,16-olide] | 0.9 µg/mL and 2.72 µM | 50.7 | 45.6 µg/mL and 138 µM | Inactive | 23.8 | 72.1 | 1.9 |  | 49.2 µg/mL and 149 µM | Selectivity Index MCF7 [1]: 0.9 |
| C=C1CC[C@H]2C(C)(C)CCC[C@]2(C)[C@H]1/C=C/C1=CC(=O)OC1O (stereo partly drawn) [Compound 7, 16-hydroxylabda-8(17),11,13-trien-15,16-olide] | 0.72 µg/mL and 2.18 µM | 7.5 | 5.37 µg/mL and 16.2 µM |  | 0.92 | 2.75 | 5.9 | 6.25 (≈ 19.8 µM) | 2.89 µg/mL and 8.75 µM | Selectivity Index MCF7 [1]: 1.9; Cytotoxicity (IC50) KB [4]: 0.91 µg/mL |
| C=C1CC[C@H]2C(C)(C)CCC[C@]2(C)[C@H]1C/C=C1\CC(O)OC1=O (stereo partly drawn) [Compound 8, coronarin D] | 25.7 µg/mL and 80.8 µM | 1.9 | 48.9 µg/mL and 154 µM | Inactive | 40 | 126 | 1.2 |  | 16.2 µg/mL and 51 µM | Selectivity Index MCF7 [1]: 3.0; CC50 (A-549 cell line): 14 µM; LC50 (HeLa cells): 60.6 µM; IC50 KB cell, previous reported (KB cell): 14.7 µg/mL (≈ 46.2 µM); IC50 NCI-H187 cell, previous reported (NCI-H187 cell): 9.8 µg/mL (≈ 30.8 µM); CC50 (MCF-7 cells): 21.9 µM; IC50 V-79 cell (V-79 cell): 17.0 µg/mL (≈ 53.4 µM); CC50 (SK-N-SH cells): 32 µM |
| C=C1CC[C@H]2C(C)(C)CCC[C@]2(C)[C@H]1C[C@@H](O)C1=CC(O)OC1=O (stereo partly drawn) [Compound 10, zerumin B] | 6.14 µg/mL and 18.4 µM | 4.0 | 24.7 µg/mL and 73.8 µM | Inactive | 13.1 | 39.3 | 1.9 |  | 13.3 µg/mL and 39.7 µM | Selectivity Index MCF7 [1]: 1.9 |
| COc1cccc2c1C(=O)c1c(O)c3c(c(O)c1C2=O)C[C@@](O)(C(=O)CO)C[C@@H]3O[C@H]1C[C@H](N)[C@H](O)[C@H](C)O1 [Doxorubicin, reference compound] | 0.053 µg/mL and 100 nM |  |  |  | 0.117 | 0.22 |  |  | 0.663 µg/mL and 1.22 µM |  |
| Cc1c2ccncc2c(C)c2c1[nH]c1ccccc12 [Ellipticine, reference compound] | 0.44 µg/mL and 1.79 µM | 3.1 | 1.34 µg/mL and 5.46 µM |  | 0.302 | 1.23 | 4.5 |  |  |  |
| CC[C@@H](CO)NCCN[C@@H](CC)CO [ethambutol, reference compound] |  |  |  |  |  |  |  | 0.234 to 0.469 (≈ 1.15 to 2.3 µM) |  |  |
| NNC(=O)c1ccncc1 [isoniazid, reference compound] |  |  |  |  |  |  |  | 0.0234 to 0.0468 (≈ 0.171 to 0.341 µM) |  |  |
| CC1COc2c(N3CCN(C)CC3)c(F)cc3c(=O)c(C(=O)O)cn1c23 (stereo not drawn) [oflaxacin, reference compound] |  |  |  | 0.391 to 0.781 µg/mL |  |  |  |  |  |  |
| CO[C@H]1/C=C/O[C@@]2(C)Oc3c(C)c(O)c4c(O)c(c(/C=N/N5CCN(C)CC5)c(O)c4c3C2=O)NC(=O)/C(C)=C\C=C\[C@H](C)[C@H](O)[C@@H](C)[C@@H](O)[C@@H](C)[C@H](OC(C)=O)[C@@H]1C [rifampicine, reference compound] |  |  |  |  |  |  |  | 0.00312 to 0.025 (≈ 0.00379 to 0.0304 µM) |  |  |
| [H]/N=C(/N)N[C@H]1[C@H](O)[C@@H](O)[C@H](O[C@@H]2O[C@@H](C)[C@](O)(C=O)[C@H]2O[C@@H]2O[C@@H](CO)[C@H](O)[C@@H](O)[C@@H]2NC)[C@@H](N/C(N)=N\[H])[C@@H]1O [streptomycin, reference compound] |  |  |  |  |  |  |  | 0.156 to 0.313 (≈ 0.268 to 0.538 µM) |  |  |
